The values below come from patent US20060142323A1, “Dual binding site acetylcholinesterase inhibitors for the treatment of alzheimer's disease” (priority 2002, published 2006).

For series [1], the target named is T1, AChE from human erythrocytes (Homo sapiens, UniProt P22303).
T1 construct: 0.02 unit/ml AChE (Sigma Chemical Co. from human erythrocytes); purchased Sigma Chemical Co; host or cells: human erythrocytes
The series can be described thus: AChE inhibition (from human erythrocytes), Ellman method. The class given is biochemical. The following applies: 10 min preincubation at 30° C., 400 μM acetylthiocholine iodide, pH 8. The protocol:
AChE Inhibition (from Human Erythrocytes)
The method of Ellman et al. (Ellman, G. L.; Courtney, K. D.; Andres, B.; Featherstone, R. M. Biochem. Pharmacol. 1961, 7, 88-95) was followed. The assay solution consisted of 0.1 M phosphate buffer pH 8, 200 μM 5,5′-dithiobis(2-nitrobenzoic acid) (DTNB, Ellan's reagent), 0.02 unit/ml AChE (Sigma Chemical Co. from human erythrocytes), and 400 μM acetylthiocholine iodide as the substrate of the enzymatic reaction. The compounds tested were added to the assay solution and pre incubated with the enzyme for 10 min at 30° C. After that period, the substrate was added. The absorbance changes at 412 nm were recorded for 5 min with a Perkin-Elmer 550 SE UV/VIS spectrometer, the reaction rates were compared, and the percent inhibition due to the presence of test compounds was calculated.
In general terms: In Ellman's method for cholinesterases, released thiocholine reacts with DTNB.

For series [2], the system named is human neuroblastoma cell line SH—SY5Y. The series can be described thus: Toxicity measurement (LDH) in SH-SY5Y cells. The class given is cell-based. The following applies: 24 hours exposure. On the procedure: The cytotoxicity effect of the molecules was tested in the human neuroblastoma cell line SH—SY5Y. These cells were cultured in 96-well plates in minimum essential medium, Han's F12 medium, supplemented with 10% fetal bovine serum, 1% glutamine and 1% penicillin/streptomycin, and grown in. a 5% CO2 humidified incubator at 37° C.
The cells were plated at 10^4 cells for each well, at least, 48 hours before the toxicity measure. Cells were exposed for 24 hours to the compounds at different concentrations (from 10^−5 to 10^−9), quantitative assessment of cell death was made by measurement of the intracellular enzyme lactate dehydrogenase (LDH) (citotoxicity detection kit, Roche). The cuantity of LDH was evaluated in a microplate reader Anthos 2010, at 492 and 620 nm. Controls were taken as 100% viability.

Series [3] deals with T2, AChE from bovine erythrocytes (Bos taurus, UniProt P23795).
T2 construct: 0.02 units AChE (Sigma Chemical Co. from bovine erythrocytes); purchased Sigma Chemical Co; host or cells: bovine erythrocytes
T2 sequence (P23795 31-614 isoform P23795-2 limits assumed): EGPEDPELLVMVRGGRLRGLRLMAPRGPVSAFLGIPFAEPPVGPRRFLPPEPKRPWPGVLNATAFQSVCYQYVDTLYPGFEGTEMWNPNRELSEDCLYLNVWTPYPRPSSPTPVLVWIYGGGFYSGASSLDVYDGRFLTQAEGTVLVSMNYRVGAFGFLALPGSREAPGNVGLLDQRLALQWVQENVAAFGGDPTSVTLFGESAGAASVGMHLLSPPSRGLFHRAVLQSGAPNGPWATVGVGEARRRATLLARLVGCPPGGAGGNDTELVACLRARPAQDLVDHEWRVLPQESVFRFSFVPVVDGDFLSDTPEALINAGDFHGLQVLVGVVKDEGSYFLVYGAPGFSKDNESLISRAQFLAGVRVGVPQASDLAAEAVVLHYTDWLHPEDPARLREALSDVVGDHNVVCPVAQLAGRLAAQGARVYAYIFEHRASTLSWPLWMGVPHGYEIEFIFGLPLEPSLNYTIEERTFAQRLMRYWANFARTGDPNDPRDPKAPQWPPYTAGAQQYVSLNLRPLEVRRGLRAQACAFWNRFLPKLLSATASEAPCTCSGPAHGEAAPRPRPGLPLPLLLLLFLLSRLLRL
The series can be described thus: Acetylcholinesterase (AChE) inhibition (from bovine erythrocytes), Ellman method at 30° C., Digiscan 340T. It is filed as biochemical. On the procedure: Acetylcholinesterase (AChE) Inhibition (from Bovine Erythrocytes)
AChE inhibitory activity was evaluated at 30° C. by the colorimetric method reported by Ellman [Ellman, G. L.; Courtney, K. D.; Andres, B.; Featherstone, R. M. Biochem. Pharmacol. 1961, 7, 88-95]. The assay solution consisted of 0.1 M phosphate buffer pH 8, 0.3 mM 5,5′-dithiobis (2-nitrobenzoic acid) (DTNB, Ellman's reagent), 0.02 units AChE (Sigma Chemical Co. from bovine erythrocytes), and 0.5 mM acetylthiocholine iodide as the substrate of the enzymatic reaction. The compounds tested were added to the assay solution and preincubated with the enzyme for 5 min at 30° C. After that period, the substrate was added. The absorbance changes at 405 nm were recorded for 5 min with a microplate reader Digiscan 340T, the reaction rates were compared, and the percent inhibition due to the presence of test compounds was calculated. The reaction rate was calculated with, at least, triplicate measurements, and the percent inhibition due to the presence of test compound was calculated relative to the compound-free control.

Series [4] deals with AChE peripheral site (Homo sapiens, UniProt P22303). The series can be described thus: Propidium competition (fluorescence). It is filed as binding. The note with it: 20 μM propidium iodide, AChE incubated at least 6 hours with compound. The protocol: Fluorescence was measured in a Fluostar optima plate reader (BMG). Measurements were carried out in 100 μl solution volume, in 96-well plates. The buffer used was 1 mM Tris/HCl, pH 8.0. […] AChE was incubated, at least 6 hours, with the molecules at different concentrations. 20 μM propidium iodide was added 10 min before fluorescence measurement.
AChE peripheral site, sequence (P22303 32-614): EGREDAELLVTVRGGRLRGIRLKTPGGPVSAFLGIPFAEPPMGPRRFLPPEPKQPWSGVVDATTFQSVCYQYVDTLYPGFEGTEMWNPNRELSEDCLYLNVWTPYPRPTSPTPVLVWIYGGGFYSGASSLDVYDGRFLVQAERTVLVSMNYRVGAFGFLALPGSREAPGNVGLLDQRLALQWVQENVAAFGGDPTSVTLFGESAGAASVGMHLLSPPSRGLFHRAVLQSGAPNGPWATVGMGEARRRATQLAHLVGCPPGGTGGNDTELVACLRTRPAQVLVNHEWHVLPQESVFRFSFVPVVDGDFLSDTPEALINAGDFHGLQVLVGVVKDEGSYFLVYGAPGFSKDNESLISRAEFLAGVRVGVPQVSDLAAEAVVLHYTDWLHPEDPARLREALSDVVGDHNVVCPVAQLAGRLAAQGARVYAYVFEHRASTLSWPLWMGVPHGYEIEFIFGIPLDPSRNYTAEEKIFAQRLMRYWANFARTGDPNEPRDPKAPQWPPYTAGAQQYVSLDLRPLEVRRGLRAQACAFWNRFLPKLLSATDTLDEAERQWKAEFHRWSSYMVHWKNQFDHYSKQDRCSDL

The target of series [5] is T3, BuChE from human serum (Homo sapiens, UniProt P06276).
T3 construct: The assay solution consisted of 0.01 units BuChE from human serum; from tissue; host or cells: human serum
T3 sequence (P06276 29-602): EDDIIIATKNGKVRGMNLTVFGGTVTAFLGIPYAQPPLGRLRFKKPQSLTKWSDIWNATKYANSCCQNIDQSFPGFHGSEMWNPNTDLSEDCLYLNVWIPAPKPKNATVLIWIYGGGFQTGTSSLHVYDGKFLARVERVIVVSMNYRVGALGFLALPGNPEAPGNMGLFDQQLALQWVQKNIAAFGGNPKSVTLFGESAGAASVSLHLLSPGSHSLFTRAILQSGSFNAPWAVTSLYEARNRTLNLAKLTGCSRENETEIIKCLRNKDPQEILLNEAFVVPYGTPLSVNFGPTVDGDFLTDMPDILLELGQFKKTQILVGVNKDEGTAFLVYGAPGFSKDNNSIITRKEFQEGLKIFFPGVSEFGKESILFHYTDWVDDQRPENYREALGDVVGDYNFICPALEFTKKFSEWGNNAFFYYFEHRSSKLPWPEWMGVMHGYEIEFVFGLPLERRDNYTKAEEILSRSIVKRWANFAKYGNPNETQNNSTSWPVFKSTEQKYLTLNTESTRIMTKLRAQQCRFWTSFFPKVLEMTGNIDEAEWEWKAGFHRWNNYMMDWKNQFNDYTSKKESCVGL
The series can be described thus: Butyrylcholinesterase (BuChE) inhibition (from human serum). It is filed as biochemical. The protocol: Butyrylcholinetersae (BuChE) Inhibition (from Human Serum)
BuChE inhibitory activity was evaluated at 30° C. by the colorimetric method reported by Ellman (Ellman, G. L.; Courtney, K. D.; Andres, B.; Featherstone, R. M. Biochem. Pharmacol. 1961, 7, 88-95]. The assay solution consisted of 0.01 units BuChE from human serum, 0.1 M sodium phosphate buffer pH 8, 0.3 mM 5,5′-dithiobis (2-nitrobenzoic acid) (DTNB, Ellman's reagent), and 0.5 mM butylthiocholine iodide as the substrate of the enzymatic reaction. Enzyme activity was determined by measuring the absorbance at 405 nm during 5 minutes with a microplate reader Digiscan 340T. The tested compounds were preincubated with the enzyme for 10 minutes at 30° C. The reaction rate was calculated with, at least, triplicate measurements.

For series [6], the target named is T4, β-amyloid-AChE complex (Homo sapiens, UniProt P22303).
T4 construct: purchased Sigma-Aldrich
T4 sequence (P22303 32-614, one chain of several): as the sequence (P22303 32-614) above
The series can be described thus: Inhibition of β-amyloid aggregation (AChE-Aβ complex, Congo Red binding). It is filed as biochemical. The note with it: propidium iodide 50 μM, Aβ1-40 0.1 mM, Aβ-AChE 200:1, 48 hours. The protocol: Inhibition of β-Amyloid Aggregation:
Stock solutions of Aβ1-40 at 3.5 mM were prepared in DMSO. The amount of peptide used in the assays was 0.1 mM. Human recombinant AChE (Sigma-Aldrich) was used at a molar ratio Aβ-AChE 200:1. For the aggregation studies the peptide was mixed with the appropriate amount of AChE in PBS pH 7.4 and stirred for 48 hours in -a microtiter plate at room temperature. The fibrils obtained were characterized by Congo Red (CR) binding.
For the inhibition of β-amyloid aggregation, the compounds tested were used at the IC50 defined in the previous paragraph of the biological evaluation. Propidium iodide 50 μM for comparison.

The mark [7] stands for this setting: bovine erythrocytes AChE, 30° C., 5 min preincubation, read-out: IC50 AchE.
[8] abbreviates: human serum BuChE, 30° C., 10 min preincubation, read-out: IC50 BuChE.

Like-named read-outs stand apart in the source and are kept apart here. A value given as a limit tells only on which side of the number the result lay.

T1 sequence (P22303 32-617 isoform P22303-2 limits assumed): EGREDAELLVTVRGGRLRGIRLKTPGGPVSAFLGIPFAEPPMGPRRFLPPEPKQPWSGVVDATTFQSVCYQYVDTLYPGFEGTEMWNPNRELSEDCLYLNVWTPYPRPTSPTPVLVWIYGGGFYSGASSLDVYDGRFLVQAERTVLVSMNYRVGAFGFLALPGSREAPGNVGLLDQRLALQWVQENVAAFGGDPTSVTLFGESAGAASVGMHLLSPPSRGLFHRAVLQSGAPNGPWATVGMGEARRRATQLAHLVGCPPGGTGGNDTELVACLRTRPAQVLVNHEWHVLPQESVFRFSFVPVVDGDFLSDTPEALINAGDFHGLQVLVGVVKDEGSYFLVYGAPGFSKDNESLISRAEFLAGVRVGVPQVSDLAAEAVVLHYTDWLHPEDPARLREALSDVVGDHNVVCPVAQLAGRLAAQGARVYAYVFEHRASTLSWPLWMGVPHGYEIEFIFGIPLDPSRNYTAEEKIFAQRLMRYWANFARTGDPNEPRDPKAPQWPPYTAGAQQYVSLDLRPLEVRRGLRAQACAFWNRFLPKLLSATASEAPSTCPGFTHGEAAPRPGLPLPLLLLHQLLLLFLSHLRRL

One may read the IC50 as the concentration that gives 50% inhibition. With `COc1cc2c(cc1OC)C(=O)C(CNCCCCCCNc1c3c(nc4ccccc14)CCCC3)C2` (centres unmarked) [Compound 2, 5,6-Dimethoxy-2-{[6-(1,2,3,4-tetrahydro-acridin-9-ylamino)-hexylamino]-methyl}-indan-1-one], it took 100 nM to reach half-maximal inhibition in series [1] (IC50).

In series [2], `O=C1c2ccccc2C(=O)N1CCCCCCCNc1c2c(nc3ccccc13)CCCC2` [Compound 4, 2-[7-(1,2,3,4-Tetrahydro-acridin-9-ylamino)-heptyl]-isoindole-1,3-dione] registered a Toxicity of more than 100 µM. Further, the IC50 worked out at 3000 nM in series [3] (setting [7]) and 10 nM in series [5] (setting [8]). The Propidium competition in series [4] was found to be 10 µM.

On to `O=C1c2ccccc2C(=O)N1CCCCCCCCNc1c2c(nc3ccccc13)CCCC2` [Compound 5, 2-[8-(1,2,3,4-Tetrahydro-acridin-9-ylamino)-octyl]-isoindole-1,3-dione], for which the Toxicity in series [2] came to 5 µM. The IC50 in series [3] (setting [7]) is 90 nM; in series [5] (setting [8]) it was 30 nM. Further, the Propidium competition in series [4] was more than 100 µM.

`O=C1c2ccccc2C(=O)N1CCCCCCNc1c2ccccc2nc2ccccc12` [Compound 6, 2-[6-(Acridin-9-ylamino)-hexyl]-isoindole-1,3-dione] came in with a Toxicity in series [2] of more than 100 µM. Moreover, the half-inhibitory concentration (IC50) in series [3] (setting [7]) worked out at 900 nM; in series [5] (setting [8]) it was 8 nM. Also, the Propidium competition in series [4] was determined as 10 µM.

In turn, `O=C1c2ccccc2C(=O)N1CCCCCCCCNc1c2ccccc2nc2ccccc12` [Compound 8, 2-[8-(Acridin-9-ylamino)-octyl]-isoindole-1,3-dione] registered a Toxicity in series [2] of 100 µM. Further, the IC50 in series [3] (setting [7]) and in series [5] (setting [8]) was 1000 nM throughout. Moreover, the Propidium competition in series [4] is more than 100 µM.

Regarding `O=C1c2ccccc2C(=O)N1CCCCCCCCCNc1c2ccccc2nc2ccccc12` [Compound 9, 2-[9-(Acridin-9-ylamino)-nonyl]-isoindole-1,3-dione], in series [2], the Toxicity was more than 100 µM. Further, the IC50 in series [3] (setting [7]) came to 2 nM; in series [5] (setting [8]), 90 nM. Further, in series [4], the Propidium competition was 1 µM.

`O=C(CN1C(=O)c2ccccc2C1=O)NCCCCCCCNc1c2c(nc3cc(Cl)ccc13)CCCC2` [Compound 10, N-[7-(6-Chloro-1,2,3,4-tetrahydro-acridin-9-ylamino)-heptyl]-2-(1,3-dioxo-1,3-dihydro-isoindol-2-yl)-acetamide] displayed a Toxicity in series [2] of more than 100 µM. In addition, the IC50 in series [3] (setting [7]) came to 20 nM; in series [5] (setting [8]), 650 nM. Besides, in series [4], the Propidium competition stood at 10 µM.

The compound `CN(CCCNC(=O)CN1C(=O)c2ccccc2C1=O)CCCNc1c2c(nc3cc(Cl)ccc13)CCCC2` [Compound 11, N-(3-{[3-(6-Chloro-1,2,3,4-tetrahydro-acridin-9-ylamino)-propyl]-methyl-amino}-propyl)-2-(1,3-dioxo-1,3-dihydro-isoindol-2-yl)-acetamide] had a Toxicity in series [2] of more than 100 µM. Further, the IC50 in series [3] (setting [7]) is 3 nM; in series [5] (setting [8]), 75 nM. The Propidium competition in series [4] was 10 µM.

Turning to `O=C(CN1C(=O)c2ccccc2C1=O)NCCCCCCNc1c2c(nc3cc(Cl)ccc13)CCCC2` [Compound 12, N-[6-(6-Chloro-1,2,3,4-tetrahydro-acridin-9-ylamino)-hexyl]-2-(1,3-dioxo-1,3-dihydro-isoindol-2-yl)-acetamide], the Toxicity in series [2] was more than 100 µM. Moreover, the values for the IC50 in series [3] (setting [7]) and in series [5] (setting [8]) were 10 nM and 200 nM, respectively. For the same compound, the Propidium competition in series [4] amounted to 100 µM.

In turn, `CCn1c(=NCCCCCCCCNc2c3c(nc4ccccc24)CCCC3)sn(C(C)C)c1=O` [Compound 17, 4-Ethyl-2-isopropyl-5-[8-(1,2,3,4-tetrahydro-acridin-9-ylamino)-octylimino]-[1,2,4]thiadiazolidin-3-one] had a Toxicity in series [2] of more than 100 µM. For the same compound, the IC50 in series [3] (setting [7]) was determined as 200 nM; in series [5] (setting [8]) it was 10 nM. For the same compound, the Propidium competition in series [4] was 0.1 µM.

As for `CCn1c(=NCCCCCCNc2c3c(nc4ccccc24)CCCC3)sn(C(C)C)c1=O` [Compound 18, 4-Ethyl-2-isopropyl-5-[6-(1,2,3,4-tetrahydro-acridin-9-ylamino)-hexyl-imino]-[1,2,4]thiadiazolidin-3-one], the Toxicity in series [2] was more than 10 µM. The values for the IC50 in series [3] and in series [5] were 2250 nM and 1000 nM, respectively. Moreover, the Propidium competition in series [4] is more than 100 µM.

Consider `CN(CCCNc1c2c(nc3cc(Cl)ccc13)CCCC2)CCCNc1c2c(nc3cc(Cl)ccc13)CCCC2` [Compound 19], for which the Toxicity in series [2] was 10 µM. Besides, the IC50 in series [3] (setting [7]) amounted to 0.1 nM; in series [5] (setting [8]) it was 1.5 nM. Moreover, the Propidium competition in series [4] was determined as 10 µM.

In turn, `Clc1ccc2c(NCCCCCCCCNc3c4ccccc4nc4ccccc34)c3c(nc2c1)CCCC3` [Compound 24, N-Acridin-9-yl-N′-(6-chloro-1,2,3,4-tetrahydro-acridin-9-yl)-octane-1,8-diamine] had a Toxicity in series [2] of 5 µM. Also, the figures for the IC50 in series [3] (setting [7]) and in series [5] (setting [8]) were 1 nM and 35 nM, respectively. In addition, the Propidium competition in series [4] is 10 µM.

`CC[N+](C)(CC)CCC[n+]1c(-c2ccccc2)c2cc(N)ccc2c2ccc(N)cc21` [propidium, Propidium iodide, reference compound]: in series [6], the “reduction of the β-amyloid-AChE complex aggregation” value is recorded as 18.1%.
